Assay results from US8541588B2, “Sulfonamide derivatives” (Pfizer Limited, priority 2009, dated 2013).
Structures can show the parent of a compound that is named as a salt.

Target: T1, Nav1.7 (or SCN9A) channel; HEK cells stably transfected with hSCN9A (Homo sapiens, UniProt Q15858)
T1 construct: expressed in transfected cells
Experiment: Nav1.7 block, PatchXpress 7000 automated whole-cell voltage clamp, estimated IC50 (EIC50)
Type: cell-based
Settings: PatchXpress platform; hSCN9A HEK cells held at V1/2 of inactivation; estimated IC50

T1 sequence (Q15858 whole entry): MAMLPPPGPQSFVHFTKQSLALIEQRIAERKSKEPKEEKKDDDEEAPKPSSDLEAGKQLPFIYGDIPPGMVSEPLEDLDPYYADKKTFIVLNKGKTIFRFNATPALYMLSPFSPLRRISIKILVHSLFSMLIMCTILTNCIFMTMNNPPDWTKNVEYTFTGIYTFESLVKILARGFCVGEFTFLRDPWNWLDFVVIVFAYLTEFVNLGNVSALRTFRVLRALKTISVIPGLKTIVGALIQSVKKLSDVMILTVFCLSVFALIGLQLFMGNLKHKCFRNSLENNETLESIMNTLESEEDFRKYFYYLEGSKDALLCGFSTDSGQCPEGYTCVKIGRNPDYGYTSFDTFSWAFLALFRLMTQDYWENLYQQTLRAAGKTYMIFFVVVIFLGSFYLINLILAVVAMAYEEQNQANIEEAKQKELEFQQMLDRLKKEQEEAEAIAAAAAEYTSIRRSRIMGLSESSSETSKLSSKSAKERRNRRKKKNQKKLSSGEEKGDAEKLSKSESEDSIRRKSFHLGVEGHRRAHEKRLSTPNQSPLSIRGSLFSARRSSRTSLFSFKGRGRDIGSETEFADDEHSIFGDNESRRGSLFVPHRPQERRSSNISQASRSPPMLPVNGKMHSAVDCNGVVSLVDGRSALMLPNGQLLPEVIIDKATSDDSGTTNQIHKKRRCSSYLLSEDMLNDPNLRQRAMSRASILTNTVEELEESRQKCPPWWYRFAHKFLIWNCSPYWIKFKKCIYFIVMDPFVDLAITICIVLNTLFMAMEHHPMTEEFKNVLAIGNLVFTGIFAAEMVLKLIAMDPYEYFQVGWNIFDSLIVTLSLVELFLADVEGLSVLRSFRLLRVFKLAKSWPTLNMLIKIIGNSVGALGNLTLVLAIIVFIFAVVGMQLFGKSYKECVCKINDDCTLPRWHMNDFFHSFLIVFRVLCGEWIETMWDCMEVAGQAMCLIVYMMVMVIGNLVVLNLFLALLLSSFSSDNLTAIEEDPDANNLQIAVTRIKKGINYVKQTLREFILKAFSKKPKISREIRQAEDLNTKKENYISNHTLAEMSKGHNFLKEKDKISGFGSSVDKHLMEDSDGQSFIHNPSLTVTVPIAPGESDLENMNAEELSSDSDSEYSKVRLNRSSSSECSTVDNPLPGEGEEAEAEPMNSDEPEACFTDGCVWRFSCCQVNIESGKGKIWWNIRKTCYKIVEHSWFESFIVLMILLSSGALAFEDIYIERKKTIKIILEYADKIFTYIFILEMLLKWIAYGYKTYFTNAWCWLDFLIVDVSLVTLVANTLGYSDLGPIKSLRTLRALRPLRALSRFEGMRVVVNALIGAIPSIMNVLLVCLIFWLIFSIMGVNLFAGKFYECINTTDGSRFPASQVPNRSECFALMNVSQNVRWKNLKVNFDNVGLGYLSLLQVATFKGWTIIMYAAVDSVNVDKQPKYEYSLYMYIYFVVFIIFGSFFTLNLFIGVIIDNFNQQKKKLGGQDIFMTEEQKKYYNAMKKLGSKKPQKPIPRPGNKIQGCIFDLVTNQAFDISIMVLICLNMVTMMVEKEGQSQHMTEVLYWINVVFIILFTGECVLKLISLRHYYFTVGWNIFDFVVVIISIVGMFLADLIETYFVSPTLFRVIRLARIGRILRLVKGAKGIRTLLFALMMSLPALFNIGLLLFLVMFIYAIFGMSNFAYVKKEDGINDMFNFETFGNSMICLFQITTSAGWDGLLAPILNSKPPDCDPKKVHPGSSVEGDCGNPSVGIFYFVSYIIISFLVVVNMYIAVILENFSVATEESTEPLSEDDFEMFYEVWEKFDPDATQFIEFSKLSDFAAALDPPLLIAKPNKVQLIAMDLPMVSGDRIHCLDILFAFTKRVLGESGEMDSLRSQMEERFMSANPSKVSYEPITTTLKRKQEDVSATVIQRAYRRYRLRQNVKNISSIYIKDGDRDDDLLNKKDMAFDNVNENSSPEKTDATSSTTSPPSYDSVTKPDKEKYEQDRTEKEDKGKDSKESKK

Compound	IC50 [nM]
CC(C)(C)n1nc(C(F)(F)F)cc1-c1ccc(Oc2ccc(S(=O)(=O)Nc3ncc(F)s3)cc2C#N)cc1 [Example 281, 4-(4-(1-tert-butyl-3-(trifluoromethyl)-1H-pyrazol-5-yl)phenoxy)-3-cyano-N-(5-fluorothiazol-2-yl)benzenesulfonamide]	120
Cn1nc(C(F)(F)F)cc1-c1ccc(Oc2ccc(S(=O)(=O)Nc3nccs3)cc2C#N)cc1 [Example 282, 3-cyano-4-[4-(2-methyl-5-trifluoromethyl-2H-pyrazol-3-yl)-phenoxy]-N-thiazol-2-yl-benzenesulfonamide]	180

Same assay, conditions: estimated IC50; hSCN9A HEK cells, PatchXpress platform; Examples 283-814

Compound	IC50 [nM]
CC(C)n1cc(-c2cc(Cl)ccc2Oc2ccc(S(=O)(=O)Nc3ncns3)cc2C#N)cn1 [Example 283, 4-[4-chloro-2-(1-isopropyl-1H-pyrazol-4-yl)phenoxy]-3-cyano-N-1,2,4-thiadiazol-5-ylbenzenesulfonamide]	580
N#Cc1cncc(-c2cc(C(F)(F)F)ccc2Oc2ccc(S(=O)(=O)Nc3ncns3)cc2C#N)c1 [Example 284, 3-cyano-4-[2-(5-cyanopyridin-3-yl)-4-(trifluoromethyl)phenoxy]-N-1,2,4-thiadiazol-5-ylbenzenesulfonamide]	1600
CC(C)(C)n1nccc1-c1cc(F)ccc1Oc1ccc(S(=O)(=O)Nc2ncns2)cc1C#N [Example 285, 4-[2-(1-tert-butyl-1H-pyrazol-5-yl)-4-fluorophenoxy]-3-cyano-N-1,2,4-thiadiazol-5-ylbenzenesulfonamide]	620
Cn1ccc(-c2cc(Cl)ccc2Oc2ccc(S(=O)(=O)Nc3ncns3)cc2C#N)n1 [Example 286, 4-[4-chloro-2-(1-methyl-1H-pyrazol-3-yl)phenoxy]-3-cyano-N-1,2,4-thiadiazol-5-ylbenzenesulfonamide]	530
N#Cc1cc(S(=O)(=O)Nc2ncns2)ccc1Oc1ccc(-n2cc(COC(=O)C(F)(F)F)cn2)cc1 [Example 287, [1-(4-{2-cyano-4-[(1,2,4-thiadiazol-5-ylamino)sulfonyl]phenoxy}phenyl)-1H-pyrazol-4-yl]methyl trifluoroacetate]	>1000
N#Cc1cc(S(=O)(=O)Nc2ncns2)ccc1Oc1ccc(-n2cc(CO)cn2)cc1 [Example 288, 3-cyano-4-{4-[4-(hydroxymethyl)-1H-pyrazol-1-yl]phenoxy}-N-1,2,4-thiadiazol-5-ylbenzenesulfonamide]	>1000
N#Cc1cc(S(=O)(=O)Nc2ncns2)ccc1Oc1ccc(I)cc1-c1cn[nH]c1 [Example 289, 3-cyano-4-[4-iodo-2-(1H-pyrazol-4-yl)phenoxy]-N-1,2,4-thiadiazol-5-ylbenzenesulfonamide]	390
CCn1nc(C(F)(F)F)cc1-c1cccc(Oc2ccc(S(=O)(=O)Nc3nc(C)ns3)cc2C#N)c1 [Example 290, 3-cyano-4-{3-[1-ethyl-3-(trifluoromethyl)-1H-pyrazol-5-yl]phenoxy}-N-(3-methyl-1,2,4-thiadiazol-5-yl)benzenesulfonamide]	2000
CCn1nc(C(F)(F)F)cc1-c1ccc(Oc2ccc(S(=O)(=O)Nc3nc(C)ns3)cc2C#N)cc1 [Example 291, 3-cyano-4-{4-[1-ethyl-3-(trifluoromethyl)-1H-pyrazol-5-yl]phenoxy}-N-(3-methyl-1,2,4-thiadiazol-5-yl)benzenesulfonamide]	2500
Cn1nc(C(F)(F)F)cc1-c1ccc(Oc2ccc(S(=O)(=O)Nc3nccs3)cc2C#N)c(C#N)c1 [Example 292, 3-cyano-4-{2-cyano-4-[1-methyl-3-(trifluoromethyl)-1H-pyrazol-5-yl]phenoxy}-N-1,3-thiazol-2-ylbenzenesulfonamide]	44
Cn1nc(C(F)(F)F)cc1-c1ccc(Oc2ccc(S(=O)(=O)Nc3ncns3)cc2C#N)c(C#N)c1 [Example 293, 3-cyano-4-{2-cyano-4-[1-methyl-3-(trifluoromethyl)-1H-pyrazol-5-yl]phenoxy}-N-1,2,4-thiadiazol-5-ylbenzenesulfonamide]	93
